{"source": "patent US20090306035A1", "about": "“Compounds and Methods for modulating the Silencing of a Polynucleotide of Interest” (Emory University, priority 2005, published 2009)", "format_in_all_cases": "cell-based", "key": {"miR-30a-3p": {"test_system": "miR-30a-3p", "assay": "miRNA sensor (Luc-T30 reporter with miR-30a-3p target sites), dual luciferase assay of HepG2 cells", "conditions": "reporter with miR-30 target sequence, endogenously expressed miR-30, FIG. 7", "protocol": "In FIG. 6, top left panel, the blue arrowheads in Luc-T30 indicate artificial target sequence against miR-30a-3p. Luc-AT30 has an artificial sequence complementary to that in Luc-T30. […] Relative luciferase activity was calculated by dividing the reporter (Firefly) luciferase activity with co-transfected Renilla luciferase activity. Luciferase activity was decreased by transfecting Luc-T30 in HepG2 (orange bars) without changes in the amount of its mRNA (blue bars). Error bars represent the standard deviation (SD) of three triplicate experiments. […] Error bars represent the standard deviation (SD) from three triplicate experiments. **P=0.004; *****P=0.00001.\nThis reporter contains the target sequence of miR-30. In the miR-30 system, the endogenously expressed miR-30 was used and, in this cell line, miR-30 has been processed completely. Thus, the addition of enoxacin had no effect."}, "[1]": {"test_system": "shRNA against Luciferase mRNA", "assay": "GL-3 luciferase reporter transfected into cells expressing shRNA against Luciferase mRNA", "conditions": "GL-3 luciferase plus shLuc, FIG. 5", "excerpt": "In this example, a luciferase reporter construct GL-3 was transfected into the cells expressing shRNA against Luciferase mRNA."}, "[2]": {"test_system": "siRNA-mediated mRNA degradation and gene knock-down (GFP siRNA)", "assay": "GFP reporter screen: 293 cells stably expressing GFP and an siRNA hairpin against GFP", "conditions": "human 293 cells, GFP reporter with siRNA hairpin against GFP; Spectrum Collection screen", "protocol": "FIG. 2 discloses one embodiment of the cell-based reporter system of the invention. In this example, a human 293-cell line stably expressing a reporter gene, GFP, was used. This cell line was further transfected with a construct that expresses siRNA hairpin against GFP, which can decrease the level of GFP expression. Individual clones were isolated with greatly (although not completely) reduced GFP expression.\nUsing the above-identified clones, a screen was performed using The Spectrum Collection (MicroSource Discovery Systems, Inc., Gaylordsville, Conn., United States of America), which contains 2000 biologically active and structurally diverse compounds from libraries of known drugs, experimental bioactives, and pure natural products. For example, in one embodiment, a pilot screen of this library identified one inhibitor and one enhancer of siRNA-mediated mRNA degradation.\nTo identify the chemical compounds that modulate the siRNA and miRNA pathway, a screening strategy was used. A human 293-cell line stably expressing a reporter gene, GFP, was used. This cell line was further transfected with a construct that expresses siRNA hairpin against GFP, which could knock down the expression of GFP. […]"}}, "data": [{"smiles": "COc1cc(C(=O)NCc2ccc(OCCN(C)C)cc2)cc(OC)c1OC", "note": "[RNAi-I]", "values": [{"measurement": "miRNA-mediated translational suppression", "setting": "miR-30a-3p", "value": "released the miRNA-mediated translational suppression"}]}, {"smiles": "O=C(O)c1cn(C2CC2)c2cc(N3CCNCC3)c(F)cc2c1=O", "note": "[ciprofloxacin]", "values": [{"measurement": "knock-down efficiency of shRNA against luciferase mRNA (relative luciferase activity)", "setting": "[1]", "value": "enhance siRNA-mediated mRNA degradation"}, {"measurement": "knock-down efficiency of shRNA against luciferase mRNA (relative luciferase activity)", "setting": "[1]; listed as ciproflaxin", "value": "increased the knock-down efficiency"}]}, {"smiles": "CCn1cc(C(=O)O)c(=O)c2cc(F)c(N3CCNCC3)nc21", "note": "[enoxacin]", "values": [{"measurement": "miRNA-mediated translational suppression", "setting": "miR-30a-3p", "value": "no effect"}, {"measurement": "knock-down efficiency of shRNA against luciferase mRNA (relative luciferase activity)", "setting": "[1]", "value": "increased the knock-down efficiency"}, {"measurement": "effect on siRNA-mediated mRNA degradation and gene knock-down", "setting": "[2]", "value": "enhance siRNA-mediated mRNA degradation and gene knock-down"}]}, {"smiles": "COc1cc(C(=O)NCc2ccc(OCCN(C)C)cc2)cc(OC)c1OC", "note": "[trimethobenzamide]", "values": [{"measurement": "effect on siRNA-mediated mRNA degradation and gene knock-down", "setting": "[2]", "value": "inhibit siRNA-mediated mRNA degradation and gene knock-down"}]}]}
